Results on one molecule are retold here after PMC4919791, “Effect of curcumin analogs onα-synuclein aggregation and cytotoxicity” (Scientific Reports, 2016).

The target of data set [1] is T1, preformed α-Syn amyloid fibrils (Homo sapiens, UniProt P37840).
T1 construct: made in house; host or cells: Escherichia coli BL21
As to the kind of experiment: MTT assay of preformed α-Syn fibrils incubated with curcumin analogs. It counts as cell-based. As to conditions: fibrils incubated with analog 48 h at 37 °C; SH-SY5Y cells. On the procedure:
(§1) The concentration of the fibrils was determined by subtraction of supernatant concentration from the original concentration of α-Syn kept for fibrillation.
(Formazan colour is commonly taken as a measure of viable cells.)

Data set [2] concerns the target T2, preformed α-Syn fibrils (Homo sapiens, UniProt P37840).
T2 construct: made in house; host or cells: Escherichia coli BL21
Nature of the data set: LDH cytotoxicity assay of preformed α-Syn fibrils incubated with curcumin analogs. It counts as cell-based. As to conditions: fibrils incubated with analog 48 h; SH-SY5Y cells. On the procedure:
as §1
The percent LDH release was plotted as difference in the absorbance value of 490 nm and 690 nm, considering 100% release for the TritonX-100 treated cells.

Data set [3] addresses T2, preformed α-Syn fibrils. Nature of the data set: Calcein-AM/EthD-1 staining, preformed α-Syn fibrils with analogs. It counts as cell-based. The note with it: SH-SY5Y cells. On the procedure: Previously it has been shown that curcumin decreases the toxicity of α-Syn amyloid fibrils by reducing the exposed hydrophobic surfaces. To delineate whether curcumin analogs can decrease the toxicity of preformed α-Syn fibrils, we performed cell viability assay. For this, 10-days incubated α-Syn solution was centrifuged (fibril formation was confirmed by electron microscopy (EM)) and the pelleted fibrils were then re-dissolved in same volume of 20 mM MES buffer (pH 6.0, 0.01% NaN3). The concentration of the fibrils was determined by subtraction of supernatant concentration from the original concentration of α-Syn kept for fibrillation. […] After incubation, we measured the effect of curcumin analogs on the toxicity of preformed α-Syn amyloid fibrils by MTT reduction assay on SH-SY5Y cells. […]
For this assay, SH-SY5Y cells were seeded in 96 well plate and incubated with identical concentrations of oligomers/fibrils (as used in MTT assay) in absence and presence of curcumin and its analogs for 36 h in 5% CO2 incubator at 37 °C. […] Calcein-AM/Ethidium homodimer-1 signal was then checked and imaged with an inverted fluorescence microscope (Leica DMi8). […] The free calcein emits strong fluorescence signal at ~535 nm, which could be easily observed in the green channel of a microscope. […]

The target in data set [4] is T3, α-Syn fibrils (Homo sapiens, UniProt P37840).
T3 construct: made in house; host or cells: Escherichia coli BL21
As to the kind of experiment: Binding affinity to α-Syn fibrils by curcumin analog fluorescence. On the procedure:
To estimate the comparative binding affinity of curcumin analogs to the α-Syn fibrils and oligomers, curcumin fluorescence assay was performed for each analog. For binding study with fibrils, 10 μM of α-Syn fibrils were incubated in presence of varying concentration of curcumin and its analogs (0.25 μM to 30 μM) for 30 min at RT in dark and then fluorescence spectra were recorded. The normalized fluorescence intensity of different concentrations of curcumin/analogs at their corresponding λmax was plotted to obtain their respective saturation plots (Figs 6A and S7). From the saturation plot, dissociation constant (Kd) was calculated (see method section).
The binding of curcumin/analogs to α-Syn fibrils were determined based on change in fluorescence intensity. For this study, 10 μM α-Syn fibrils were incubated in presence and absence of varying concentration of curcumin/analogs (0.25 μM to 30 μM) for 30 min at RT in dark. Immediately after incubation, fluorescence study was performed (for the excitation and emission ranges for each compounds, see Fig. S1). Experiments were performed using FluoroMax-4 spectrofluorometer (HORIBA JobinYvon) with excitation and emission slit widths of 5 nm. The maximum fluorescence intensity for curcumin/analogs was normalized with respect to that of the lowest concentration of each analog. The normalized fluorescence intensity was plotted against increasing concentration of curcumin/analogs and the dissociation constant was determined using the equation
where, “ΔF” is the change in the fluorescence intensity of curcumin/analogs, “ΔFmax” is the change in the fluorescence intensity at saturation point and “L”is the concentration of curcumin/analogs. The data were analyzed in Graphpad Prism software according to established method as used previously. Similarly, the dissociation constant of curcumin and its analogs with preformed α-Syn oligomers and monomers (obtained from SEC) were also determined.

In a further data set the target is T4, α-Syn oligomers (Homo sapiens, UniProt P37840).
T4 construct: made in house; host or cells: Escherichia coli BL21
As to the kind of experiment: Binding affinity to α-Syn oligomers by curcumin analog fluorescence. The note with it: compound fluorescence; read-out: dissociation constant (Kd) for α-Syn oligomers. On the procedure: Immediately after incubation, fluorescence study was performed (for the excitation and emission ranges for each compounds, see Fig. S1). Experiments were performed using FluoroMax-4 spectrofluorometer (HORIBA JobinYvon) with excitation and emission slit widths of 5 nm.
The data were analyzed in Graphpad Prism software according to established method as used previously.

In the next data set the target is T5, α-Syn (Homo sapiens, UniProt P37840).
T5 construct: made in house; host or cells: Escherichia coli BL21
Nature of the data set: α-Syn aggregation kinetics by compound fluorescence. Type of data set: biochemical. As to conditions: in presence of analog. On the procedure: ThT fluorescence was used to monitor the aggregation kinetics of α-Syn only as a control.
Subsequently, we examined the effect of these analogs on α-Syn oligomerization by time dependent static light scattering experiment. […] After aggregation, TEM study was done to determine the effects of these analogs on the morphology of the resultant aggregates.
The α-Syn amyloid aggregation was started with LMW α-Syn of concentration ~300 μM in 1.5 ml microfuge tube in 20 mM MES buffer, pH 6.0, with 0.01% NaN3. […] The microfuge tubes with protein solutions were placed into Echo-Therm model RT11 vertical rotor (Torrey Pines Scientific, USA) with a speed of 50 rpm, at 37 °C inside an incubator.
The experiments were performed in FluoroMax-4 spectrofluorometer (HORIBA JobinYvon) with excitation and emission slit widths of 5 nm. Fluorescence was done in 20 mM MES buffer (pH 6.0, 0.01% NaN3).

For data set [5], the target named is T3, α-Syn fibrils. Nature of the data set: MTT assay of α-Syn fibrils formed in presence of curcumin analogs. It counts as cell-based. As to conditions: 10 μM α-Syn fibril, 36 h, SH-SY5Y. On the procedure: Next, we measured the effect of α-Syn fibrils formed in presence and absence of curcumin analogs on the viability of SH-SY5Y neuronal cell line by MTT reduction assay. SH-SY5Y cells were incubated with 10 μM α-Syn fibril formed in presence of various curcumin analogs for 36 h. […] However, the extent of decrease in toxicity was different for different analogs. […] The calcein-AM/ethidium homodimer-1 staining also further corroborated the results obtained from MTT and LDH assay (Fig. 8C).

Entries after “also recorded” stand apart in the source; their conditions may differ.

Take `COc1cc(/C=C/C(=O)CC(=O)/C=C/c2ccc(OCc3ccccc3)c(OC)c2)ccc1OCc1ccccc1` [C6]: in data set [1], the “cell viability, MTT, preformed α-Syn fibrils incubated with analog” value turned out to be 92.9% and the “effect on toxicity of preformed α-Syn fibrils, MTT” value is “reduction in toxicity”. Also, the “effect on cell death by preformed α-Syn fibrils, LDH” value on preformed α-Syn fibrils [2] is “decrease in cell death”. The “Calcein-AM/EthD-1 staining with preformed α-Syn fibrils” value at preformed α-Syn fibrils [3] was “less nuclear staining by EthD-1”. The Kd on α-Syn fibrils [4] (10 μM fibrils, 0.25–30 μM analog, 30 min RT, read-out: dissociation constant (Kd) for α-Syn fibrils) came out at 0.482 ± 0.07 µM. Further, the “binding with preformed α-Syn fibrils” value on α-Syn fibrils [4] (compound fluorescence) is given as “highest binding”. Further, the dissociation constant Kd at α-Syn oligomers is 16.1 ± 3.81 µM. The “effect on rate/kinetics of α-Syn aggregation” value at α-Syn is recorded as “fastest; also recorded: significantly accelerated α-Syn aggregation kinetics”. On α-Syn (compound fluorescence, MES pH 6.0), the “lag time of α-Syn aggregation” value is 3.5 ± 0.5 h. Also, the “toxicity of α-Syn fibrils formed in presence of analog, MTT” value on α-Syn fibrils [5] is “maximum cell viability; also recorded: less toxicity to cells”.

As usually defined, the Kd is the constant that tells how readily two partners part at equilibrium.
